The results in this text go back to ChEMBL document CHEMBL1955760, “Pyrrolovesamicols--synthesis, structure and VAChT binding of two 4-fluorobenzoyl regioisomers” (Bioorg Med Chem Lett, 2012).

For assay [1], the target named is T1, Vesicular acetylcholine transporter (Rattus norvegicus, UniProt Q62666).
T1 sequence (Q62666 whole entry): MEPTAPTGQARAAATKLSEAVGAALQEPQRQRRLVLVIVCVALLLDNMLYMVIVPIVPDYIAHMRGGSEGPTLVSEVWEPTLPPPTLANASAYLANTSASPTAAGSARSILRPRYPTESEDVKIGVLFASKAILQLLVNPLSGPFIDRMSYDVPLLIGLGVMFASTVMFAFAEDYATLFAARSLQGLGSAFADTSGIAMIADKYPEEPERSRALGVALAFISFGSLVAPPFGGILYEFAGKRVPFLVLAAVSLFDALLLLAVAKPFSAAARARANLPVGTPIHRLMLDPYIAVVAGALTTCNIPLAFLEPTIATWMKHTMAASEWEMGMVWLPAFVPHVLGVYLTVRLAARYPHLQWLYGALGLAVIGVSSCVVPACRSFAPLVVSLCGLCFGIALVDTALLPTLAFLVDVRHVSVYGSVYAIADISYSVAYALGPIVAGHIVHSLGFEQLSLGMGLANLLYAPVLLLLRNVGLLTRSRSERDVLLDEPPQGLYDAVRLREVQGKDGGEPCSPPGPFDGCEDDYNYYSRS
In words: Displacement of (-)-[3H]vesamicol from rat VAchT transfected in rat PC12 cells after 2 hrs by scintillation counting. The format is cell-based, PC-12.

The target of assay [2] is T2, Vesicular acetylcholine transporter (Homo sapiens, UniProt Q16572).
T2 sequence (Q16572 whole entry): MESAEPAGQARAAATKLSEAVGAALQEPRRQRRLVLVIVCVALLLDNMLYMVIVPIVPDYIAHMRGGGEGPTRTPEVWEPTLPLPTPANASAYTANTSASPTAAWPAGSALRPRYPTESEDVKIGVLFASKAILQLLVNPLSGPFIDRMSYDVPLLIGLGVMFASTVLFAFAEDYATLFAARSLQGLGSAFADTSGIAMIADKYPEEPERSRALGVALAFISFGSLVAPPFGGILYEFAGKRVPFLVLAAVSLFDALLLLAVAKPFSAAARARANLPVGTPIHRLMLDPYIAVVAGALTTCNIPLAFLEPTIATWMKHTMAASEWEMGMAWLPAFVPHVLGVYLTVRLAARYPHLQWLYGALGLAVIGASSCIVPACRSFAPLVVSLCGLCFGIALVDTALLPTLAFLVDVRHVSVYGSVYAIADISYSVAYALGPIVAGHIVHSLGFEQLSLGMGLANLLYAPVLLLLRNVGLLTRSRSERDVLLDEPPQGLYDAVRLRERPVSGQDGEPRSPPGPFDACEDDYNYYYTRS
As to the kind of experiment: Binding affinity to VAchT.

The target of assay [3] is T2, Vesicular acetylcholine transporter. In words: Binding affinity to VAchT transfected in rat PC12 cells. The format is cell-based, PC-12.

Regarding `O=C(c1ccc(F)cc1)c1cc2c([nH]1)C[C@@H](N1CCC(c3ccccc3)CC1)[C@H](O)C2` (racemic), in assay [1], the inhibition constant Ki – broadly, the dissociation constant of the complex between target and ligand, obtained from inhibition or displacement – was determined as 0.312 µM.
In the case of `O[C@@H]1CCN(Cc2ccc([18F])cc2)C[C@H]1N1CCC(c2ccccc2)CC1` (racemic), the Ki in assay [2] stood at 0.00044 µM.
In turn, `CCN(C(=O)C[18F])c1cccc2c1C[C@@H](N1CCC(c3ccccc3)CC1)[C@H](O)C2` showed a Ki in assay [2] of 0.00032 µM.
The compound `O=C(c1ccc([18F])cc1)N1CCOC2C[C@@H](O)[C@H](N3CCC(c4ccccc4)CC3)CC21` (mixture of isomers) returned a Ki in assay [3] of 0.0275 µM.
Turning to `O=C(c1ccc(F)cc1)c1cc2c([nH]1)C[C@@H](O)[C@H](N1CCC(c3ccccc3)CC1)C2` (racemic), in assay [1], affinity was put at a Ki of 7.32 µM.
